From publication PMC12171880, “Selectivity and Safety Characterization of a Xanthine–Imidazothiazole Lead Structure: a Novel Tryptophan Hydroxylase Inhibitor of Peripheral Serotonin Synthesis” (ACS Pharmacology & Translational Science, 2025) come the findings set out here.

This series is described as follows: Toxicokinetic evaluation, plasma exposure in rats (LC-MS). Type of series: in vivo, rat. As to conditions: for concentration at 30 min: both sexes, Sprague-Dawley, rat, plasma, po. As for the experimental part:
TPT-004 was formulated in 0.5% (w/v) CMC-Na in water and administered by oral gavage (PO) twice daily (b.i.d.) with a 12 h interval to the treatment groups (3 male and 3 female Sprague–Dawley rats each) for 8 days (15 successive applications). Rats were dosed with 10, 45, and 200 mg/kg, i.e., daily doses of 20, 90, and 400 mg/kg. In addition, a control group was dosed at the same frequency as the vehicle (0.5% CMC-Na).
A blood sample of 100 μL was obtained from each rat by puncturing one of the lateral tail veins under short isoflurane anesthesia. Blood was collected in tubes containing lithium heparin and gently mixed. After centrifugation (10 min at 3000g, 4 °C), plasma was separated and stored at −20 °C until LC-MS analysis. In addition, on day 8, the rats were exsanguinated by cardiac puncture under isoflurane anesthesia. A volume of 100 μL of blood (K3-EDTA) was used for immediate cell blood count, while the rest of the blood was mixed with lithium heparin and centrifuged to generate plasma for clinical chemistry analysis.

Structures are written as SMILES.

For the molecule `CCn1c(=O)[nH]c(=O)c2c1nc(Cc1cn3cc(C)sc3n1)n2CC1COC1` [TPT-004], the “accumulation in plasma after 15 doses” value (10, 45, 200 mg/kg BID, day 1 vs day 8) was “absence of an accumulation effect”. The same molecule returned a concentration at 30 min (10 mg/kg, day 1, 30 min after the first application, 10 mg/kg PO) of 902 ± 247 ng/mL; a concentration at 30 min (10 mg/kg, day 8, 30 min after the 15th application, 10 mg/kg BID PO) of 877 ± 210 ng/mL; a concentration at 30 min (45 mg/kg, day 1, 30 min after the first application, 45 mg/kg PO) of 4720 ± 2420 ng/mL; a concentration at 30 min (45 mg/kg, day 8, 30 min after the 15th application, 45 mg/kg BID PO) of 5040 ± 1790 ng/mL; a concentration at 30 min (200 mg/kg, day 1, 30 min after the first application, 200 mg/kg PO) of 18200 ± 6610 ng/mL; a concentration at 30 min (200 mg/kg, day 8, 30 min after the 15th application, 200 mg/kg BID PO) of 14400 ± 5600 ng/mL. The “dose linearity correlation in plasma” value by setting is: (day 1) 0.9987; (day 8) 0.9826.
